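Briefly, cells in 96-well plates were exposed to five compound concentrations for 48 h, and endpoints were estimated by linear interpolation. At the GI50, growth is halved.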 Activity calls are given as the source filed them. No stated cut-off is given here; in the data, active = GI50 up to about 1.1 µM and inactive = higher.
What was measured:
Test in all cases: DTP human tumour cell line panel, 48 h
[1] = tested on: A498
[2] = tested on: CCRF-CEM
[3] = tested on: COLO 205
[4] = tested on: HCT-15
[5] = tested on: HOP-62
[6] = tested on: HOP-92
[7] = tested on: LOX IMVI
[8] = tested on: M14
[9] = tested on: MOLT-4
[10] = tested on: NCI-H23
[11] = tested on: NCI-H460
[12] = tested on: OVCAR-8
[13] = tested on: RPMI-8226
[14] = tested on: SN12C
[15] = tested on: SNB-75
[16] = tested on: SW-620
[17] = tested on: UO-31
[18] = tested on: ACHN
[19] = tested on: HCC 2998

Row | SMILES | GI50 [1] | GI50 [2] | GI50 [3] | GI50 [4] | GI50 [5] | GI50 [6] | GI50 [7] | GI50 [8] | GI50 [9] | GI50 [10] | GI50 [11] | GI50 [12] | GI50 [13] | GI50 [14] | GI50 [15] | GI50 [16] | GI50 [17] | GI50 [18] | GI50 [19]
1 | CCN(CC)c1ccc(/N=N/c2ccc(-c3nc4ccc[n+](C)c4o3)cc2)cc1 | 15.7 µM (inactive) | 3.27 µM (inactive) | 2.29 µM (inactive) | 10.3 µM | 16.3 µM (inactive) | 15.2 µM (inactive) | 4.3 µM (inactive) | 12.1 µM (inactive) | 3.66 µM (inactive) | 12.8 µM (inactive) | 12.6 µM (inactive) | 5.11 µM (inactive) | 2.75 µM (inactive) | 15.5 µM (inactive) | 11.6 µM (inactive) | 4.76 µM (inactive) | 12.7 µM (inactive) | – | –
2 | COc1ccccc1CNC1=Nc2ccncc2S(=O)(=O)N1c1ccccc1 | 45.8 µM (inactive) | 95.5 µM (inactive) | 63.4 µM (inactive) | 49.7 µM | – | 39.7 µM (inactive) | > 100 µM (inactive) | > 100 µM (inactive) | 69 µM (inactive) | 85.1 µM (inactive) | 60.4 µM (inactive) | 84.7 µM (inactive) | 60.5 µM (inactive) | > 100 µM (inactive) | – | > 100 µM (inactive) | > 100 µM (inactive) | > 100 µM (inactive) | > 100 µM (inactive)
3 | O=C(/C=C1\NC(=O)c2ccccc2N1)c1ccncc1 | > 100 µM (inactive) | > 100 µM (inactive) | > 100 µM (inactive) | > 100 µM | > 100 µM (inactive) | – | – | > 100 µM (inactive) | > 100 µM (inactive) | > 100 µM (inactive) | > 100 µM (inactive) | > 100 µM (inactive) | > 100 µM (inactive) | > 100 µM (inactive) | 45.9 µM (inactive) | > 100 µM (inactive) | > 100 µM (inactive) | > 100 µM (inactive) | > 100 µM (inactive)
4 | c1ccc2c3c([nH]c2c1)C1C2CCCCN2C(c2ccncc2)N1CC3 (stereo not drawn) | – | 33 µM (inactive) | 35 µM (inactive) | 35.5 µM | 52.5 µM (inactive) | – | 37.2 µM (inactive) | 34.8 µM (inactive) | 43.3 µM (inactive) | 34.4 µM (inactive) | 29.6 µM (inactive) | 38.1 µM (inactive) | 27.4 µM (inactive) | 39.1 µM (inactive) | 22.8 µM (inactive) | 33.5 µM (inactive) | 11.5 µM (inactive) | 46.1 µM (inactive) | –
5 | Cn1ncc2c(Cl)ncnc21 | > 100 µM (inactive) | – | > 100 µM (inactive) | > 100 µM | > 100 µM (inactive) | > 100 µM (inactive) | > 100 µM (inactive) | > 100 µM (inactive) | > 100 µM (inactive) | > 100 µM (inactive) | > 100 µM (inactive) | > 100 µM (inactive) | > 100 µM (inactive) | > 100 µM (inactive) | > 100 µM (inactive) | > 100 µM (inactive) | > 100 µM (inactive) | > 100 µM (inactive) | > 100 µM (inactive)
6 | COc1ccc(C/C(=N/O)C(=O)NCCc2cc(Br)c(OCCCN(C)C)c(Br)c2)cc1Br [APLYSAMINE 2] | – | – | 18.8 µM (inactive) | – | 15.8 µM (inactive) | – | 16.2 µM (inactive) | 17.7 µM (inactive) | – | > 10 µM (inactive) | 17.3 µM (inactive) | 21.9 µM (inactive) | – | 18.5 µM (inactive) | 18.9 µM (inactive) | 16.6 µM (inactive) | 23.1 µM (inactive) | 15.6 µM (inactive) | 14.1 µM (inactive)

Reference: ChEMBL document CHEMBL1201862, “PubChem BioAssay data set” (2004)
